From US8247377B2, “Non-steroidal glucocorticoid inhibitors and their use in treating inflammation, allergy and auto-immune conditions” (Glaxo Group Limited, priority 2006, dated 2012)

What was measured:
NFκB = NFκB agonist assay in A549 SPAP cells; format: cell-based; settings: Homo sapiens; for Emax: A549, A549 SPAP cells, >85% = full agonist, ≧20% = partial or full agonist, read-out: average maximum asymptote in the NFkB assay; for IC50: A549 SPAP cells, TNFα 3.2 ng/ml, read-out: pIC50 for the NFkB assay (converted);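 on average maximum asymptote in the NFkB assay: maximum inhibition of the TNFα-induced NFκB-driven signal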
Method in brief: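 A549 cells stably carrying an ELAM/NFκB-driven SPAP reporter were pre-incubated 1 h at 37° C with compound, then stimulated with TNFα (3.2 ng/ml final) for 15 h. SPAP activity read colorimetrically with pNPP at 405 nm after ~1 h; pIC50 estimated from dose-response curves.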

MMTV promoter = test: MMTV agonist assay in A549 MMTV cells; format: cell-based; settings: Homo sapiens, A549, 6 h, >85% = full agonist, >20% and <85% = partial or efficacy selective agonist, read-out: average maximum asymptote in the MMTV agonist assay
Method in brief: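 A549 cells stably carrying an MMTV promoter-driven renilla luciferase reporter were exposed to compound for 6 h at 37 °C in DMEM with 10% FCS and 25 mM HEPES. Luminescence read after renilla substrate addition; pEC50 and maximum asymptote estimated from dose-response curves.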

| SMILES | Emax (NFκB) [%] | IC50 (NFκB) [nM] | Emax (MMTV promoter) [%] |
| --- | --- | --- | --- |
| CCN(CC(O)(CNC(=O)c1cnn(-c2ccc(F)c(F)c2)c1N)C(F)(F)F)C(=O)c1c(F)cccc1F (racemic) [Example 33 (racemic), 5-amino-1-(3,4-difluorophenyl)-N-(2-{[[(2,6-difluorophenyl)carbonyl](ethyl)amino]methyl}-3,3,3-trifluoro-2-hydroxypropyl)-1H-pyrazole-4-carboxamide] | > 85 | < 1000 | > 85 |
| CN(CC(O)(CNC(=O)c1cnn(-c2ccc(F)cc2)c1N)C(F)(F)F)C(=O)c1c(F)cccc1C(F)(F)F (racemic) [Example 21 (racemic), 5-amino-1-(4-fluorophenyl)-N-(3,3,3-trifluoro-2-{[{[2-fluoro-6-(trifluoromethyl)phenyl]carbonyl}(methyl)amino]methyl}-2-hydroxypropyl)-1H-pyrazole-4-carboxamide] | > 85 | < 1000 | > 85 |
| CCN(CC(O)(CNC(=O)c1cnn(-c2ccc(F)cc2)c1N)C(F)(F)F)C(=O)c1c(Cl)cccc1Br (racemic) [Example 24 (racemic), 5-amino-N-(2-{[[(2-bromo-6-chlorophenyl)carbonyl](ethyl)amino]methyl}-3,3,3-trifluoro-2-hydroxypropyl)-1-(4-fluorophenyl)-1H-pyrazole-4-carboxamide] | > 85 | < 1000 | > 85 |
| Nc1c(C(=O)NCC(O)(CNC(=O)c2c(Cl)cccc2Cl)C(F)(F)F)cnn1-c1ccc(F)cc1 (single isomer, unassigned) [Example 3 Enantiomer 1, 5-Amino-N-[2-({[(2,6-dichlorophenyl)carbonyl]amino}methyl)-3,3,3-trifluoro-2-hydroxypropyl]-1-(4-fluorophenyl)-1H-pyrazole-4-carboxamide] | ≥ 20 | < 1000 | 20 to 85 |
| Nc1c(C(=O)NCC(O)(CN(CCF)C(=O)c2c(Cl)cccc2Br)C(F)(F)F)cnn1-c1ccc(F)cc1 (racemic) [Example 30 (racemic), 5-amino-N-(2-{[[(2-bromo-6-chlorophenyl)carbonyl](2-fluoroethyl)amino]methyl}-3,3,3-trifluoro-2-hydroxypropyl)-1-(4-fluorophenyl)-1H-pyrazole-4-carboxamide] | > 85 | < 1000 | > 85 |
| CCN(CC(O)(CNC(=O)c1cnn(-c2cc(F)ccc2F)c1N)C(F)(F)F)C(=O)c1c(F)cccc1F (racemic) [Example 36 (racemic), 5-amino-1-(2,5-difluorophenyl)-N-(2-{[[(2,6-difluorophenyl)carbonyl](ethyl)amino]methyl}-3,3,3-trifluoro-2-hydroxypropyl)-1H-pyrazole-4-carboxamide] | > 85 | < 1000 | > 85 |
| CCN(CC(O)(CNC(=O)c1cnn(-c2ccc(F)cc2)c1N)C(F)(F)F)C(=O)c1c(OC(F)F)cccc1OC(F)F (racemic) [Example 26 (racemic), 5-amino-N-(2-{[({2,6-bis[(difluoromethyl)oxy]phenyl}carbonyl)(ethyl)amino]methyl}-3,3,3-trifluoro-2-hydroxypropyl)-1-(4-fluorophenyl)-1H-pyrazole-4-carboxamide] | > 85 | < 1000 | > 85 |
| Nc1c(C(=O)NCC(O)(CNC(=O)c2c(Br)cccc2C(F)(F)F)C(F)(F)F)cnn1-c1ccc(F)cc1 (single isomer, unassigned) [Example 45 Enantiomer 1, 5-Amino-N-{2-[({[2-bromo-6-(trifluoromethyl)phenyl]carbonyl}amino)methyl]-3,3,3-trifluoro-2-hydroxypropyl}-1-(4-fluorophenyl)-1H-pyrazole-4-carboxamide] | ≥ 20 | < 1000 | 20 to 85 |
| Nc1c(C(=O)NCC(O)(CN(CCF)C(=O)c2c(Cl)cccc2Cl)C(F)(F)F)cnn1-c1ccc(F)cc1 (racemic) [Example 28 (racemic), 5-amino-N-(2-{[[(2,6-dichlorophenyl)carbonyl](2-fluoroethyl)amino]methyl}-3,3,3-trifluoro-2-hydroxypropyl)-1-(4-fluorophenyl)-1H-pyrazole-4-carboxamide] | > 85 | < 1000 | > 85 |
| Nc1c(C(=O)NCC(O)(CNC(=O)c2c(Br)cccc2C(F)(F)F)C(F)(F)F)cnn1-c1ccc(F)cc1 (racemic) [Example 45 (racemic), 5-Amino-N-{2-[({[2-bromo-6-(trifluoromethyl)phenyl]carbonyl}amino)methyl]-3,3,3-trifluoro-2-hydroxypropyl}-1-(4-fluorophenyl)-1H-pyrazole-4-carboxamide] | ≥ 20 | < 1000 | 20 to 85 |
| CCN(CC(O)(CNC(=O)c1cnn(-c2cccc(Cl)c2)c1N)C(F)(F)F)C(=O)c1c(F)cccc1F (racemic) [Example 41 (racemic), 5-amino-1-(3-chlorophenyl)-N-(2-{[[(2,6-difluorophenyl)carbonyl](ethyl)amino]methyl}-3,3,3-trifluoro-2-hydroxypropyl)-1H-pyrazole-4-carboxamide] | > 85 | < 1000 | > 85 |
| Nc1c(C(=O)NCC(O)(CNC(=O)c2c(Cl)cccc2Cl)C(F)(F)F)cnn1-c1ccc(F)cc1 (racemic) [Example 3 (racemic), 5-Amino-N-[2-({[(2,6-dichlorophenyl)carbonyl]amino}methyl)-3,3,3-trifluoro-2-hydroxypropyl]-1-(4-fluorophenyl)-1H-pyrazole-4-carboxamide] | ≥ 20 | < 1000 | 20 to 85 |
| Nc1c(C(=O)NCC(O)(CN(CCF)C(=O)c2c(F)cccc2C(F)(F)F)C(F)(F)F)cnn1-c1ccc(F)cc1 (racemic) [Example 18 (racemic), 5-amino-1-(4-fluorophenyl)-N-{3,3,3-trifluoro-2-[((2-fluoroethyl){[2-fluoro-6-(trifluoromethyl)phenyl]carbonyl}amino)methyl]-2-hydroxypropyl}-1H-pyrazole-4-carboxamide] | > 85 | < 1000 | > 85 |
| Nc1c(C(=O)NCC(O)(CNC(=O)c2c(Br)cccc2Br)C(F)(F)F)cnn1-c1ccc(F)cc1 (single isomer, unassigned) [Example 11 Enantiomer 1, 5-Amino-N-[2-({[(2,6-dibromophenyl)carbonyl]amino}methyl)-3,3,3-trifluoro-2-hydroxypropyl]-1-(4-fluorophenyl)-1H-pyrazole-4-carboxamide] | ≥ 20 | < 1000 | 20 to 85 |
| CCN(CC(O)(CNC(=O)c1cnn(-c2c(F)cccc2F)c1N)C(F)(F)F)C(=O)c1c(F)cccc1F (racemic) [Example 37 (racemic), 5-amino-1-(2,6-difluorophenyl)-N-(2-{[[(2,6-difluorophenyl)carbonyl](ethyl)amino]methyl}-3,3,3-trifluoro-2-hydroxypropyl)-1H-pyrazole-4-carboxamide] | > 85 | < 1000 | > 85 |
| Nc1c(C(=O)NCC(O)(CNC(=O)c2c(C(F)F)cccc2C(F)F)C(F)(F)F)cnn1-c1ccc(F)cc1 (racemic) [Example 43 (racemic), 5-Amino-N-{2-[({[2,6-bis(difluoromethyl)phenyl]carbonyl}amino)methyl]-3,3,3-trifluoro-2-hydroxypropyl}-1-(4-fluorophenyl)-1H-pyrazole-4-carboxamide] | ≥ 20 | < 1000 | 20 to 85 |
| Nc1c(C(=O)NCC(O)(CNC(=O)c2c(Cl)cccc2Br)C(F)(F)F)cnn1-c1ccc(F)cc1 (single isomer, unassigned) [Example 12 Enantiomer 1, 5-Amino-N-[2-({[(2-bromo-6-chlorophenyl)carbonyl]amino}methyl)-3,3,3-trifluoro-2-hydroxypropyl]-1-(4-fluorophenyl)-1H-pyrazole-4-carboxamide] | ≥ 20 | < 1000 | 20 to 85 |
